Measured values taken from patent US8735411B2, “Macrocyclic benzofused pyrimidine derivatives” (AbbVie Inc., priority 2006, dated 2014).

Legend:
[1] = target: T1, histamine H4 receptor (Homo sapiens, UniProt Q9H3N8); assay: [3H]-histamine competition binding assay on membranes of transfected HEK-293 cells; design: expressed in transfected cells; host or cells: HEK-293 cells, transient transfection with pCINeo vector; membranes; settings: displacement of [3H]-histamine; Ki by Cheng-Prusoff equation; read-out: Potency
Method: In this assay, membranes were prepared from HEK-293 cells transiently transfected with the pCINeo expression vector harboring the histamine H4 receptor by homogenization of the cells on ice in TE buffer (50 mM Tris-HCl buffer, pH 7.4, containing 5 mM EDTA), 1 mM benzamidine, 2 μg/ml aprotinin, 1 μg/ml leupeptin, and 1 μg/ml pepstatin. The homogenate was centrifuged at 40,000 g for 20 minutes at 4° C. This step was repeated, and the resulting pellet was resuspended in TE buffer. Aliquots were frozen at −70° C. until needed. On the day of assay, membranes were thawed and diluted with TE buffer. Competition radioligand binding assays were performed with increasing concentrations of test compound in the presence of [^3H]-histamine incubated at 25° C. for 1 hour in a total volume of 0.5 ml of 50 mM Tris, 5 mM EDTA, pH 7.4. All binding reactions were terminated by filtration under vacuum onto polyethylenimine (0.3%) presoaked Unifilters (PerkinElmer Life Sciences) or Whatman GF/B filters (Whatman, Clifton, N.J.) followed by three brief washes with 4 ml of ice-cold TE buffer. Bound radiolabel was determined by liquid scintillation counting. For all of the radioligand competition binding assays, IC50 values and Hill slopes were determined by Hill transformation of the data and Ki values were determined by the Cheng-Prusoff equation.

[2] = target: T1, histamine H4 receptor; assay: In vitro histamine H4 potency in FLIPR (Ca2+ flux, HEK-293 cells coexpressing Gαqi5); type: cell-based; design: expressed in transfected cells; settings: Kb for antagonists and inverse agonists, EC50 for partial agonists
Method in brief: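 Fluo-4-loaded cells read on FLIPR for intracellular Ca2+ rise after compound addition, with pre-addition fluorescence subtracted. Peak responses per concentration expressed as % of the full-agonist histamine response. Concentration–response fits give Kb for antagonists/inverse agonists and EC50 for partial agonists.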

[3] = system: neuropathic pain; assay: Analgesic effect against neuropathic pain: L5/L6 spinal nerve ligation (Chung model), von Frey mechanical allodynia; type: in vivo, rat; settings: 100 micromole/kg i.p., 30 minutes before testing
Method: Animals were prepared for testing, by use of a surgical procedure that induces neuropathic pain in one paw. Male Sprague Dawley rats were purchased from Charles River (Portage, Mich.). Prior to surgery, animals were housed in groups and maintained in a temperature-regulated environment. Following nerve ligation surgery, animals were housed in groups, and had access to food and water ad libitum.
The L5 and L6 spinal nerves of anesthetized rats were tightly ligated in a manner described previously (see Kim and Chung, Pain (1992) vol. 50 pp. 355-363). An incision was made on the dorsal portion of the hip and the muscle was blunt-dissected to reveal the spinal processes. The L6 transverse process was removed, and the left side L5 and L6 spinal nerves were tightly ligated with 5.0 braided silk suture. The wound was cleaned, the membrane sewn with 4.0 dissolvable Vicryl suture and the skin closed with wound clips. The paw affected by the surgical procedure (the left paw) develops an allodynic response, a hypersensitivity to mechanical and other stimuli; neuropathic pain is assessed as an increased sensitivity in the surgically affected (left) allodynic paw compared to the control paw on the right side, and measured by comparing the response of the (left side) allodynic paw to the response of the unaffected right side control paw.
For the assessment of neuropathic pain, mechanical allodynia in the affected paw of animals that had undergone spinal nerve ligation was evaluated using testing with von Frey filaments. As described previously by S. R. Chaplan, et al (“Quantitative assessment of tactile allodynia in the rat paw” J. Neurosci. Meth. (1994) vol. 53 pp. 55-63), two weeks following surgery rats were acclimated to a testing box constructed of plexiglass with a wire mesh floor which allowed access to the plantar surface of the animal's hindpaws. Using an Up-Down method (Dixon, Annu. Rev. Pharmacol. Toxicol. (1980) vol. 20, pp. 441-462; Chaplan et al. “Quantitative assessment of tactile allodynia in the rat paw” J. Neuroscience Methods (1994) vol. 53 pp. 55-63), von Frey filaments of increasing stiffness were applied to the plantar surface of the hindpaws and the withdrawal response of the animals was observed; for the surgically affected paw with neuropathic pain (the left side paw) the baseline level of allodynia has a withdrawal threshold of ≦4 g of pressure. […] The efficacy of the compound in reducing neuropathic pain at different doses is determined by comparing response in the surgery-affected paw versus the response in the control paw. This is expressed as the MPE (maximum percent effect), or 100 times the withdrawal threshold of the allodynic (left side) divided by the withdrawal threshold of the control (right side).

[4] = system: inflammatory pain; assay: Analgesic effect against inflammatory pain: carrageenan-induced thermal hyperalgesia, hotbox assay; type: in vivo; settings: 100 micromole/kg i.p., 90 min after carrageenan, tested 30 min after dosing
Method: To assess the effectiveness of representative compounds of the invention against acute model inflammatory pain, animals were tested in an acute model of carrageenan-induced thermal hyperalgesia (see for example, Honore, et al. Behavioural Brain Research 167 (2006) 355-364; Porreca, et al. Journal of Pharmacology and Experimental Therapeutics (2006) vol. 318 pp. 195-205). Carrageenan was injected into the test paw of the animal, and after 90 minutes, the test drug was administered by intraperitoneal dosing; the effect on thermal hyperalgesia was assessed in a hotbox assay which done 30 minutes after the intraperitoneal dosing of the test drug, and the MPE (maximal percent effect) reported by comparison to the control paw (not injected with carrageenan), according to 100 times the withdrawal latency of the carrageenan injected paw (in seconds) divided by the withdrawal latency of the control (not injected with carrageenan) paw.

Row | Compound | Potency [2] | other results
1 | CN[C@@H]1CCN(c2nc(N)nc3c2CCCc2ccccc2-3)C1 [Example 6, 4-(3-(R)-Methylamino-pyrrolidin-1-yl)-6,7-dihydro-5H-benzo[6,7]cyclohepta[1,2-d]pyrimidin-2-ylamine] | 6.6 nM | Ki [1]: 5 nM
2 | Nc1nc2c(c(N3CCNCC3)n1)CCCc1ccccc1-2 [Example 7, 4-Piperazin-1-yl-6,7-dihydro-5H-benzo[6,7]cyclohepta[1,2-d]pyrimidin-2-ylamine] | 15 nM | Ki [1]: 8 nM; MPE [3]: 30%; MPE [4]: 23%
3 | Nc1nc2c(c(N3CC[C@@H](N)C3)n1)CCCc1ccccc1-2 [Example 16, 4-((3R)-3-Amino-pyrrolidin-1-yl)-6,7-dihydro-5H-benzo[6,7]cyclohepta[1,2-d]pyrimidin-2-ylamine] | – | MPE [3]: 47%; MPE [4]: 68%
4 | Nc1nc2c(c(N3CCCNCC3)n1)CCCc1ccccc1-2 [Example 116, 4-[1,4]Diazepan-1-yl-6,7-dihydro-5H-benzo[6,7]cyclohepta[1,2-d]pyrimidin-2-ylamine] | 15 nM | –
5 | Nc1nc2c(c(N3C[C@H]4CNC[C@H]43)n1)CCCc1ccccc1-2 [Example 117, (1R,5S)-4-(3,6-Diaza-bicyclo[3.2.0]hept-6-yl)-6,7-dihydro-5H-benzo[6,7]cyclohepta[1,2-d]pyrimidin-2-ylamine] | 12 nM | –
6 | Nc1nc2c(c(N3CC[C@H]4CNC[C@H]43)n1)CCCc1ccccc1-2 [Example 119, (3aS,6aS)-4-(Hexahydro-pyrrolo[3,4-b]pyrrol-1-yl)-6,7-dihydro-5H-benzo[6,7]cyclohepta[1,2-d]pyrimidin-2-amine] | 269 nM | –
7 | Nc1nc2c(c(N3C[C@@H]4CN[C@@H]4C3)n1)CCCc1ccccc1-2 [Example 120, (1S,5S)-4-(3,6-Diaza-bicyclo[3.2.0]hept-3-yl)-6,7-dihydro-5H-benzo[6,7]cyclohepta[1,2-d]pyrimidin-2-ylamine] | 603 nM | –
8 | c1ccc2c(c1)CCCc1c-2nc(NCCc2c[nH]cn2)nc1N1CC2CCCNC2C1 (stereo not drawn) [Example 127, 6-(2-(1H-imidazol-4-yl)ethylamino-6,7-dihydro-5H-benzo[6,7]cyclohepta[1,2-d]pyrimidin-4-yl)octahydro-1H-pyrrolo[3,4-b]pyridine] | 933 nM | –
9 | [1-(6,7-Dihydro-5H-benzo[6,7]cyclohepta[1,2-d]pyrimidin-4-yl)-azetidin-3-yl]-amine [Example 125] | 631 nM | –

Now from value to compound, other results behind:

Row | Potency [2] | Compound | other results
10 | 138 nM | c1ccc2c(c1)CCCc1c-2ncnc1N1CCNCC1 [Example 118, 4-Piperazin-1-yl-6,7-dihydro-5H-benzo[6,7]cyclohepta[1,2-d]pyrimidine] | –
11 | 407 nM | Nc1nc(NC2CCCNC2)c2c(n1)-c1ccccc1CCC2 (stereo not drawn) [Example 121, N^4-piperidin-3-yl-6,7-dihydro-5H-benzo[6,7]cyclohepta[1,2-d]pyrimidine-2,4-diamine] | –
12 | 1288 nM | Nc1nc(NC2CCCC3CNCC32)c2c(n1)-c1ccccc1CCC2 (stereo not drawn) [Example 122, N^4-(Octahydro-isoindol-4-yl)-6,7-dihydro-5H-benzo[6,7]cyclohepta[1,2-d]pyrimidine-2,4-diamine] | –
13 | 1622 nM | CNc1nc2c(c(N3CCNCC3)n1)CCCc1ccccc1-2 [Example 123, Methyl-(4-piperazin-1-yl-6,7-dihydro-5H-benzo[6,7]cyclohepta[1,2-d]pyrimidin-2-yl)-amine] | –
14 | 1413 nM | CN[C@@H]1CCN(c2ncnc3c2CCCc2ccccc2-3)C1 [Example 124, 4-(3-(R)-Methylamino-pyrrolidin-1-yl)-6,7-dihydro-5H-benzo[6,7]cyclohepta[1,2-d]pyrimidine] | –
15 | 2754 nM | Cc1cc(C)c2c(c1)-c1nc(N)nc(N3CCNCC3)c1CCC2 [Example 126, 8,10-Dimethyl-4-piperazin-1-yl-6,7-dihydro-5H-benzo[6,7]cyclohepta[1,2-d]pyrimidin-2-ylamine] | –
16 | 562 nM | COC(=O)N(C)c1ccc2c(c1)-c1nc(N)nc(N3CCNCC3)c1CCC2 [Example 128, (2-Amino-4-piperazin-1-yl-6,7-dihydro-5H-benzo[6,7]cyclohepta[1,2-d]pyrimidin-10-yl)-methyl-carbamic acid methyl ester] | –
17 | 1096 nM | CNc1ccc2c(c1)-c1nc(N)nc(N3CCNCC3)c1CCC2 [Example 129, 10-N-Methyl-4-piperazin-1-yl-6,7-dihydro-5H-benzo[6,7]cyclohepta[1,2-d]pyrimidine-2,10-diamine] | –
18 | 164 nM | COC(=O)N(C)c1ccc2c(c1)-c1nc(N)nc(N3CC4CCCNC4C3)c1CCC2 (stereo not drawn) [Example 130, (2-Amino-4-octahydro-pyrrolo[3,4-b]pyridin-6-yl-6,7-dihydro-5H-benzo[6,7]cyclohepta[1,2-d]pyrimidin-10-yl)-methyl-carbamic acid methyl ester] | –
19 | 113 nM | CNc1ccc2c(c1)-c1nc(N)nc(N3C[C@H]4CCCN[C@H]4C3)c1CCC2 [Example 131, 10-N-methyl-4-[(4aR,7aR)-octahydro-6H-pyrrolo[3,4-b]pyridin-6-yl]-6,7-dihydro-5H-benzo[6,7]cyclohepta[1,2-d]pyrimidine-2,10-diamine] | –
20 | 1096 nM | CC(=O)Nc1cccc2c1-c1nc(N)nc(N3CCNCC3)c1CCC2 [Example 132, N-(2-Amino-4-piperazin-1-yl-6,7-dihydro-H-benzo[6,7]cyclohepta[1,2-d]pyrimidin-11-yl)-acetamide] | –
21 | 14454 nM | COC(=O)c1nc2c(c(N3CC4CCCNC4C3)n1)CCCc1ccccc1-2 (stereo not drawn) [Example 133, 4-(Octahydro-pyrrolo[3,4-b]pyridin-6-yl)-6,7-dihydro-5-benzo[6,7]cyclohepta[1,2-d]pyrimidine-2-carboxylic acid methyl ester] | –
22 | 11885 nM | O=C(O)c1nc2c(c(N3CC4CCCNC4C3)n1)CCCc1ccccc1-2 (stereo not drawn) [Example 134, 4-(Octahydro-pyrrolo[3,4-b]pyridin-6-yl)-6,7-dihydro-5H-benzo[6,7]cyclohepta[1,2-d]pyrimidine-2-carboxylic acid] | –
